Measured values published in patent publication US20070078085A1, “Methods and compositions for the utilization and targeting of osteomimicry” (priority 2004, published 2007).

Test system: CRE-nuclear protein (CREB) complexes
Assay: Electrophoretic mobility shift assay (EMSA) with 32P-labeled CRE probe and nuclear extracts of treated cells
Format: cell-based, human
Conditions: nuclear extracts of C4-2B cells; H-89 10^−6 M
Experimental: Electrophoretic Mobility Shift Assay (EMSA). A LNCaP-lineaged metastatic human prostate cancer cell line, C4-2B, and the human osteosarcoma cell line MG63 were plated in 15-cm diameter tissue culture dishes in T-medium (with 5% serum) until 80% confluence. Cells were then switched to 1-day complete serum-free condition and then treated with or without ARCaP CM (15 μg/ml) or FSK (10^−5 M) for an additional 16 h. Nuclear extracts were prepared from C4-2B and MG63 for EMSA as described by Ausubel et al (37). Briefly, cells were washed with cold PBS twice, harvested and homogenized in hypotonic buffer (10 mM HEPES, pH 7.9, 1.5 mM MgCl2, 10 mM KCl, 0.5 mM DTT and 0.2 mM PMSF). After centrifugation, the nuclear pellets were stirred and incubated for 30 min in high-salt buffer (20 mM HEPES, pH 7.9, 25% glycerol, 1.5 mM MgCl2, 1.2 M KCl, 0.2 mM EDTA, 0.5 mM DTT and 0.2 mM PMSF) on ice. The nuclear pellets were centrifuged, and the nuclear extract supernatants were dialyzed twice against dialysis buffer (20 mM HEPES, pH 7.9, 20% glycerol, 100 mM KCl, 0.2 mM EDTA, 0.5 mM DTT and 0.2 mM PMSF) overnight. The concentration of nuclear proteins was determined by the Bradford method using Coomassie plus protein reagent (Pierce). Synthetic oligonucleotides were purified by PAGE. Appropriate pairs were annealed by heating up to 95° C. for 10 min and naturally cooled down to room temperature. […]

**Q.** Which “ARCaP CM- and FSK-induced CRE binding to nuclear proteins” value does the source give for `O=S(=O)(NCCNCC=Cc1ccc(Br)cc1)c1cccc2cnccc12` [H-89, N-[2-(p-bromocinnamylamino)ethyl]-5-isoquinolinesulfonamide] here?
**A.** abolish
